We go through eight compounds from patent publication US9675555B2, “Liposome-encapsulated bicelles and use thereof in diluted systems” (priority 2010, dated 2017).

Counter-ions that a name gives are not always drawn.

The test system of the first data set is Candida albicans fungus. In words: Microbiologic activity of nistatine (MIC). In kind it is cell-based. The following applies: nistatine incorporated to the liposomes of the invention.
For nistatine, the “minimum inhibitory concentration (MIC)” value stood at 16 µg/mL.

Test system in another data set: not listed separately
As to the kind of experiment: Incorporation of different substances into the systems. It counts as physicochemical.
Settings: not given
How it is done: The incorporation was made in the step of formation of the bicelles. Depending on the hydrophilic or lypophilic character of the substance, this was added together with the lipids forming the bicelle in the chloroform step or together with the hydration water. For these preparations, the following blends: DPPC/DHPC, DMPC/DHPC and DOPC/DHPC were selected. The DOPC is dioleoylphosphatidylcholine. The work was carried out with molar rates of the concentrations of both lipids between 2 and 3.5.
The samples were submitted between 10 and 50 sonication cycles in an ultrasound bath for a period of 5 minutes and 5 minutes of freezing until they became clear.
These bicelles, together with the substances internally contained were encapsulated in liposomes in the form described in example 1 and were characterized according to the methods described in example 2.
The nistatine molecule was incorporated to the systems of the invention as described in example 3.
In the case of `Cn1c(=O)c2c(ncn2C)n(C)c1=O` [caffeine], the “encapsulation within the bicelles contained within the liposomes of the invention” value is given as “efficiently encapsulated”. `CC(C)CCC[C@@H](C)[C@H]1CC[C@H]2[C@@H]3CC=C4C[C@@H](OS(=O)(=O)O)CC[C@]4(C)[C@H]3CC[C@]12C` [cholesterol sulfate]: the “encapsulation within the bicelles contained within the liposomes of the invention” value is reported as “efficiently encapsulated”. The same measure, in the same setting: the result for `O=C(O)Cc1ccccc1Nc1c(Cl)cccc1Cl` [dichlophenac] reads “efficiently encapsulated”; that for `O=C(O)c1ccccc1Nc1cccc(C(F)(F)F)c1` [flufenamic acid], “efficiently encapsulated”. Still for that read-out and setting: for `CNC(=O)CN(CCN(CCN(CC(=O)[O-])CC(=O)NC)CC(=O)[O-])CC(=O)[O-].[Gd+3]` [gadodiamide] the value was “efficiently encapsulated”.

On to `[Fe]` [iron], for which the “encapsulation within the bicelles contained within the liposomes of the invention” value is “efficiently encapsulated”.

Take ceramides: the “encapsulation within the bicelles contained within the liposomes of the invention” value is recorded as “efficiently encapsulated”.

Still in this data set, the particulars now being: high water content system.
Consider nistatine, for which the “quantity of nistatine incorporated into the system of the invention” value is given as “about 15.75 mg/ml”.
